ChEMBL document CHEMBL4007385, “Prodrug approach: An overview of recent cases” (Eur J Med Chem, 2017)

Assay: Oral bioavailability in human
Format: ADME, organism-based
Details: in vivo

| bioavailability [%] | SMILES |
| --- | --- |
| 5 | CCC(CC)O[C@@H]1C=C(C(=O)O)C[C@H](N)[C@H]1NC(C)=O [OSELTAMIVIR CARBOXYLATE] |
| 80 | CCOC(=O)C1=C[C@@H](OC(CC)CC)[C@H](NC(C)=O)[C@@H](N)C1 [OSELTAMIVIR] |
